The record followed here is patent publication EP0622358A1, “Phenylglycinamides of 4-imidazolylmethyl-phenyl-acetic acids and their use against hypertension and atherosclerosis” (BAYER AG, priority 1993, dated 1994).

This assay concerns glatte Muskelzellen. The experiment in a line: Inhibition of proliferation of smooth muscle cells (3H-thymidine incorporation). The assay is classed as cell-based, Ratten. The following applies: half-maximal inhibition of thymidine incorporation induced by 10% FCS; rat aortic smooth muscle cells; read-out: IC₅₀. As for the experimental part:
Untersuchung zur Inhibition der Proliferation glatter Muskelzellen durch die erfindungsgemäßen Verbindungen
Zur Feststellung der antiproliferativen Wirkung der Verbindungen werden glatte Muskelzellen verwendet, die aus den Aorten von Ratten durch die Media-Explantat-Technik gewonnen werden [R. Ross, J. Cell. Biol. 50, 172, 1971]. Die Zellen werden in geeigneten Kulturschalen, in der Regel 96-Loch-Platten, ausgesät und für 2 - 3 Tage in Medium 199 mit 7,5% FCS und 7,5% NCS, 2 mM L-Glutamin und 15 mM HEPES, pH 7,4 in 5% CO₂ bei 37°C kultiviert. Danach werden die Zellen durch Serumentzug für 2 - 3 Tage synchronisiert und sodann mit Serum zum Wachstum angeregt. Gleichzeitig werden Testverbindungen zugesetzt. Nach 16 - 20 Stunden wird 1 µCi ³H-Thymidin zugefügt und nach weiteren 4 Stunden der Einbau dieser Substanz in die TCA-präzipitierbare DNA der Zellen bestimmt Zur Bestimmung der IC₅₀₋Werte wird die Wirkstoffkonzentration errechnet, die bei sequentieller Verdünnung des Wirkstoffes halbmaximale Hemmung der durch 10% FCS hervorgerufene Thymidininkorporation bewirkt. Tabelle B
In general terms: Dividing cells build labelled thymidine or BrdU into new DNA.

For the compound `CCCCc1nc(Cl)c(CO)n1Cc1ccc(C(C(=O)NC(C(N)=O)c2ccccc2)C2CCCC2)cc1` (centres unmarked) [Beispiel 6, 2-{2-[4-(2-Butyl-4-chlor-5-hydroxymethyl-imidazol-1-yl-methyl)phenyl]-2-cyclopentyl}acetamido-2-phenyl-acetamid], the IC50 was found to be 0.2 nM. Turning to `CCCCc1nc(Cl)c(C=O)n1Cc1ccc(C(C(=O)NC(C(N)=O)c2ccccc2)C2CCCC2)cc1` (centres unmarked) [Beispiel 1, 2-{2-[4-(2-Butyl-4-chlor-5-formyl-imidazol-1-yl-methyl)phenyl]-2-cyclopentyl}-acetamido-2-phenyl-acetamid], the IC50 was 1 nM.
